Data as given in patent US8470810B2, “Heterocyclic compounds suitable for treating disorders that respond to modulation of the dopamine D3 receptor” (Abbott GmbH & Co. KG, priority 2004, dated 2013).

Assays:
[1] = biological target: T1, human dopamine D3 receptors (Homo sapiens, UniProt P35462); assay: Dopamine D3 receptor binding, displacement of [125I]-iodosulpride; conditions: for Ki: membranes of HEK-293 cells stably expressing human D3, 0.1 nM [125I]-iodosulpride, 25° C., 60 minutes; for Ki(D2)*/Ki(D3)*: selectivity ratio of the receptor binding constants D2 over D3
T1 construct: expressed in transfected cells
Experimental: (§1) The substance to be tested was either dissolved in methanol/Chremophor® (BASFAG) or in dimethyl sulfoxide and then diluted with water to the desired concentration.
(§2) Each assay mixture was run in triplicate.
The incubation buffer contained 50 mM tris, 120 mM NaCl, 5 mM KCl, 2 mM CaCl2, 2 mM MgCl2 and 0.1% bovine serum albumin, 10 μM quinolone and 0.1% ascorbic acid (prepared fresh daily). The buffer was adjusted to pH 7.4 with HCl.
(§3) After having been incubated at 25° C. for 60 minutes, the assay mixtures were filtered through a Whatman GF/B glass fiber filter under vacuum using a cell collecting device. The filters were transferred to scintillation viols using a filter transfer system. After 4 ml of Ultima Gold® (Packard) have been added, the samples were shaken for one hour and the radioactivity was then counted in a Beta-Counter (Packard, Tricarb 2000 or 2200CA). The cpm values were converted into dpm using a standard quench series and the program belonging to the instrument.
(§4) The inhibition curves were analyzed by means of iterative nonlinear regression analysis using the Statistical Analysis System (SAS) which is similar to the “LIGAND” program described by Munson and Rodbard.
(§5) The results of the receptro binding studies are expressed as receptor binding constants Ki(D2) and Ki(D3), respectively, as herein before described, and given in table 6.

[2] = biological target: T2, human dopamine D2L receptors (long isoform) (Homo sapiens, UniProt P14416); assay: Dopamine D2L receptor binding, displacement of [125I] iodospiperone; conditions: membranes of HEK-293 cells stably expressing human D2L; 0.01 nM [125I] iodospiperone; 25° C., 60 minutes; read-out: Ki(D2)*
T2 construct: expressed in transfected cells
Experimental: as §1, §2
The incubation buffer contained 50 mM tris, 120 mM NaCl, 5 mM KCl, 2 mM CaCl2, 2 mM MgCl2 and 0.1% bovine serum albumin. The buffer was adjusted to pH 7.4 with HCl.
as §3, §4, §5

T1 sequence (P35462 whole entry): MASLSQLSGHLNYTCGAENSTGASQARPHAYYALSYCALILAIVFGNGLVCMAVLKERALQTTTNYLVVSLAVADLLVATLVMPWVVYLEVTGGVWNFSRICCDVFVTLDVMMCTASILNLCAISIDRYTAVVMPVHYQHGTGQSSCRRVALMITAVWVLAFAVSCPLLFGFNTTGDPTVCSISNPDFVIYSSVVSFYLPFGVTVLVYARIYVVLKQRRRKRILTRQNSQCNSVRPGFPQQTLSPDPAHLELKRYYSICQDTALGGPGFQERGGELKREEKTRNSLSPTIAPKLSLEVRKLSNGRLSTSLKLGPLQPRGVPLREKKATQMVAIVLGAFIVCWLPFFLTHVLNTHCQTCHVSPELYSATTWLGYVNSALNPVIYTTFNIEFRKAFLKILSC
T2 sequence (P14416 whole entry, canonical isoform): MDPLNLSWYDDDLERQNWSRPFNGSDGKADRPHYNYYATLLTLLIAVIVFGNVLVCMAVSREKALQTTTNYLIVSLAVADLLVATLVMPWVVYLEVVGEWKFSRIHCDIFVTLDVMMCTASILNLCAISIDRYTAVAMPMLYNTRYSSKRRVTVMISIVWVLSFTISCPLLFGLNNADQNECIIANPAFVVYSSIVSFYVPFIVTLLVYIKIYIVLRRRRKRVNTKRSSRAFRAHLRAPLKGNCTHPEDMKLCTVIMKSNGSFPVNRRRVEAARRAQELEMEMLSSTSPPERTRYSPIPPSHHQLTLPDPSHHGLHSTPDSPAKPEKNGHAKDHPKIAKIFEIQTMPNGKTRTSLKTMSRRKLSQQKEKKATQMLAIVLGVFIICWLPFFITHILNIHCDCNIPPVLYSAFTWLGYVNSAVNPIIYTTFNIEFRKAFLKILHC

## CCCN1CC[C@@H](c2ccc(NS(=O)(=O)c3ccc(-c4ccco4)cc3)cc2)C1 [Example 73, 4-Furan-2-yl-N-[4-((S)-1-propyl-pyrrolidin-3-yl)-phenyl]-benzenesulfonamide]
[1]
  Ki: 0.61 nM
[2]
  Ki: 6.73 nM

## CCCN1CC[C@@H](c2ccc(NS(=O)(=O)c3ccc(OC(F)F)cc3)cc2)C1.Cl [Example 9, 4-Difluoromethoxy-N-[4-((S)-1-propyl-pyrrolidin-3-yl)-phenyl]-benzenesulfonamide hydrochloride]
[1]
  Ki: 2.6 nM
  Ki(D2)*/Ki(D3)*: 49
[2]
  Ki: 129 nM

## CCCN1CC[C@@H](c2ccc(NS(=O)(=O)c3ccc(-c4ccno4)s3)cc2)C1 [Example 80, 5-Isoxazol-5-yl-thiophene-2-sulfonic acid [4-((S)-1-propyl-pyrrolidin-3-yl)-phenyl]-amide]
[1]
  Ki: 37.6 nM
  Ki(D2)*/Ki(D3)*: 29
[2]
  Ki: 1100 nM

## CCCN1CC(c2ccc(NS(=O)(=O)c3ccc(C(C)C)cc3)cc2)C1 [Example 48, 4-Isopropyl-N-[4-(1-propyl-azetidin-3-yl)-phenyl]-benzene sulfonamide]
[1]
  Ki: 2.1 nM
  Ki(D2)*/Ki(D3)*: 65
[2]
  Ki: 137 nM

## CCCN1CC[C@@H](c2ccc(NS(=O)(=O)c3ccc(CCC(F)(F)F)cc3)cc2)C1 [Example 88, N-[4-((S)-1-Propyl-pyrrolidin-3-yl)-phenyl]-4-(3,3,3-trifluoro-Propyl)-benzenesulfonamide]
[1]
  Ki: 0.92 nM
  Ki(D2)*/Ki(D3)*: 45
[2]
  Ki: 41 nM

## CCCN1CC[C@@H](c2ccc(NS(=O)(=O)c3ccc(CC(F)(F)F)cc3)cc2)C1 [Example 103, N-[4-((S)-1-Propyl-pyrrolidin-3-yl)-phenyl]-4-(2,2,2-trifluoro-ethyl)benzenesulfonamide]
[1]
  Ki: 1.2 nM
  Ki(D2)*/Ki(D3)*: 38
[2]
  Ki: 45 nM

## CCCN1CC[C@@H](c2ccc(NS(=O)(=O)c3ccc(OC(C)C)cc3)cc2)C1.Cl [Example 23, 4-Isopropoxy-N-[4-((S)-1-propyl-pyrrolidin-3-yl)-phenyl]-benzenesulfonamide hydrochloride]
[1]
  Ki: 1.07 nM
  Ki(D2)*/Ki(D3)*: 44
[2]
  Ki: 46.6 nM

## C=CCN1CC[C@@H](c2ccc(NS(=O)(=O)c3ccc(C(C)C)cc3)cc2)C1.Cl [Example 3, 4-(Isopropyl)-N-[4-((S)-1-allyl-pyrrolidin-3-yl)-phenyl]-benzenesulfonamide hydrochloride]
[1]
  Ki: 0.17 nM
  Ki(D2)*/Ki(D3)*: 91
[2]
  Ki: 13.8 nM

## CCCN1CC[C@@H](c2ccc(NS(=O)(=O)c3ccc(Br)cc3F)cc2)C1 [Example 17, 4-Bromo-2-fluoro-N-[4-((S)-1-propyl-pyrrolidin-3-yl)-phenyl]-benzenesulfonamide]
[1]
  Ki: 3.1 nM
  Ki(D2)*/Ki(D3)*: 41
[2]
  Ki: 126 nM

## CC(C)c1ccc(S(=O)(=O)Nc2ccc(C3CCNC3)c(F)c2)cc1 (centres unmarked) [Example 129, N-(3-Fluoro-4-pyrrolidin-3-yl-phenyl)-4-isopropyl-benzenesulfonamide]
[1]
  Ki: 3.6 nM
  Ki(D2)*/Ki(D3)*: 30
[2]
  Ki: 106 nM

## CCCc1ccc(S(=O)(=O)Nc2ccc([C@@H]3CCN(CCC)C3)cc2)cc1.Cl [Example 30, 4-Propyl-N-[4-((S)-1-propyl-pyrrolidin-3-yl)-phenyl]-benzenesulfonamide hydrochloride]
[1]
  Ki: 0.28 nM
  Ki(D2)*/Ki(D3)*: 42
[2]
  Ki: 11.7 nM

## CCCN1CC(c2ccc(NS(=O)(=O)c3ccc(CC(F)(F)F)cc3)cc2)C1 [Example 62, N-[4-(1-Propyl-azetidin-3-yl)-phenyl]-4-(2,2,2-trifluoro-ethyl)-benzenesulfonamide]
[1]
  Ki: 25.2 nM
  Ki(D2)*/Ki(D3)*: 141
[2]
  Ki: 3540 nM

## CCCN1CC[C@@H](c2ccccc2NS(=O)(=O)c2ccc(Br)c(F)c2)C1 [Example 16, 4-Bromo-3-fluoro-N-[2-((S)-1-propyl-pyrrolidin-3-yl)-phenyl]-benzenesulfonamide]
[1]
  Ki: 12.6 nM
  Ki(D2)*/Ki(D3)*: 31
[2]
  Ki: 393 nM
